Measurements as given in patent US8377884B2, “Variants of C-type natriuretic peptides” (Biomarin Pharmaceutical Inc., priority 2007, dated 2013).
Read-outs that look alike come from different tables or passages of the source. Bridge positions count the residues as written; N and C are the ends. Ends that are not written are not given here. Peptide text beside a SMILES is read from it. PEO24 = monodispersed, 1.2 kDa

Target: T1, NPR-B (Mus musculus, UniProt Q6VVW5)
T1 construct: Murine NIH3T3 cells express endogenously the CNP signaling receptor, NPR-B; endogenous in cells; host or cells: NIH3T3 (murine fibroblasts)
T1 sequence (Q6VVW5 17-1047): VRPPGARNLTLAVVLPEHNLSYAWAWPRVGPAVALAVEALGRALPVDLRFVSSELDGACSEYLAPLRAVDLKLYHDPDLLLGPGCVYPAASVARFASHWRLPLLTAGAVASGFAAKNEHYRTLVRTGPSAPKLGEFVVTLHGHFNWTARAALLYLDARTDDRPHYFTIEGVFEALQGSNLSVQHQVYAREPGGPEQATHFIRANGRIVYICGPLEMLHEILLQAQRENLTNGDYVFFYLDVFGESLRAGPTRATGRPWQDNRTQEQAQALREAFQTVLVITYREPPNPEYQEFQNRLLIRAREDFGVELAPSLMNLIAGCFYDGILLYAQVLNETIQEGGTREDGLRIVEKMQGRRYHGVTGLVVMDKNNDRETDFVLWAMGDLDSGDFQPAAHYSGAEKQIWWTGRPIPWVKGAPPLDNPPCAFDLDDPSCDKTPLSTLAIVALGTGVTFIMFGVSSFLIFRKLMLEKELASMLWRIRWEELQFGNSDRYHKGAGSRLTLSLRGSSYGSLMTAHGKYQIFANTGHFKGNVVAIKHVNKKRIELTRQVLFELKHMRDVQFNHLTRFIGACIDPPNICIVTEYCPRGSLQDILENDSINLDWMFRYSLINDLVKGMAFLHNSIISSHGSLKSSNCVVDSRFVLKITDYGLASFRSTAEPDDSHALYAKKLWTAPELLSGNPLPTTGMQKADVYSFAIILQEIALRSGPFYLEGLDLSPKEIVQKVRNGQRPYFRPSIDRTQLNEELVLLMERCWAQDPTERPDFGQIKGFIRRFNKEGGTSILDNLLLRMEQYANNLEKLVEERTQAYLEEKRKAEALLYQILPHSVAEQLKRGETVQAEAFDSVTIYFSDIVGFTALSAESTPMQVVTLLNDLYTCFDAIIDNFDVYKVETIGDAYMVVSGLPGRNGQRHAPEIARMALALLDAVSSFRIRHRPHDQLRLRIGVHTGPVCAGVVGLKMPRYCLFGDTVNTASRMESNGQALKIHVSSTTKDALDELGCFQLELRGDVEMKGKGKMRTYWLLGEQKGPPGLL
Test: Stimulation of cGMP production in NIH3T3 cells
Type: cell-based, Murine
Conditions: for cGMP response relative to 1 uM CNP22 (%) at 0.01 µM: read-out: cGMP Response rel. to 1 uM CNP22, 10 nM; for cGMP response relative to 1 uM CNP22 (%) at 1 µM: read-out: cGMP Response rel. to 1 uM CNP22, 1 uM

[1] = NIH3T3 cells, 10 nM natriuretic peptide, normalized to cell number and cGMP production with 1 uM wtCNP22
[2] = NIH3T3 cells, 1 uM natriuretic peptide, normalized to cell number and cGMP production with 1 uM wtCNP22

Molecule | cGMP response relative to 1 uM CNP22 (%) at 0.01 µM [1] | cGMP response relative to 1 uM CNP22 (%) at 1 µM [2] | further results
CC[C@H](C)[C@@H]1NC(=O)[C@H](CCCNC(=N)N)NC(=O)[C@H](CC(=O)O)NC(=O)[C@H](CC(C)C)NC(=O)[C@H](CCCCN)NC(=O)[C@H](CC(C)C)NC(=O)[C@H](CO)NC(=O)[C@H](Cc2ccccc2)NC(=O)[C@@H](NC(=O)CNC(=O)[C@H](CCCNC(=N)N)NC(=O)[C@H](CO)NC(=O)[C@H](CC(C)C)NC(=O)CN)CSSC[C@@H](C(=O)O)NC(=O)CNC(=O)[C@H](CC(C)C)NC(=O)CNC(=O)[C@H](CO)NC(=O)[C@H](CCSC)NC(=O)[C@H](CO)NC(=O)CNC1=O [AB] (H-GLSRGCFSLKLDRIGSMSGLGC-OH; disulfide 6-22 (inferred); N-terminus and C-terminus assumed) | 26 ± 26% | 86 ± 17% | –
CC[C@H](C)[C@@H]1NC(=O)[C@H](CCCNC(=N)N)NC(=O)[C@H](CC(=O)O)NC(=O)[C@H](CC(C)C)NC(=O)[C@H](CCCCN)NC(=O)[C@H](CC(C)C)NC(=O)CNC(=O)[C@H](Cc2ccccc2)NC(=O)[C@@H](NC(=O)CNC(=O)[C@H](CCCCN)NC(=O)[C@H](CO)NC(=O)[C@H](CC(C)C)NC(=O)CNC(=O)[C@H](CCC(N)=O)NC(=O)[C@H](CCC(N)=O)NC(=O)[C@H](CC(N)=O)NC(=O)[C@H](C)NC(=O)CNC(=O)[C@H](Cc2c[nH]cn2)NC(=O)[C@@H]2CCCN2C(=O)[C@H](Cc2c[nH]cn2)NC(=O)[C@H](CCC(N)=O)NC(=O)[C@H](CCC(=O)O)NC(=O)[C@H](Cc2c[nH]cn2)NC(=O)[C@H](CO)NC(=O)[C@H](Cc2c[nH]cn2)NC(=O)[C@H](Cc2c[nH]cn2)NC(=O)CN)CSSC[C@@H](C(=O)O)NC(=O)CNC(=O)[C@H](CC(C)C)NC(=O)CNC(=O)[C@H](CO)NC(=O)[C@H](CCSC)NC(=O)[C@H](CO)NC(=O)CNC1=O [CQ] (H-GHHSHEQHPHGANQQGLSKGCFGLKLDRIGSMSGLGC-OH; disulfide 21-37 (inferred); N-terminus and C-terminus assumed) | – | – | cGMP response relative to 1 uM CNP22 (%) at 0.01 µM (NIH3T3, […]): 16%; cGMP response relative to 1 uM CNP22 (%) at 1 µM (NIH3T3, […]): 95%
CC[C@H](C)[C@@H]1NC(=O)[C@H](CCCNC(=N)N)NC(=O)[C@H](CC(=O)O)NC(=O)[C@H](CC(C)C)NC(=O)[C@H](CCCNC(=N)N)NC(=O)[C@H](CC(C)C)NC(=O)CNC(=O)[C@H](Cc2ccccc2)NC(=O)[C@@H](NC(=O)CNC(=O)[C@H](CCCNC(=N)N)NC(=O)[C@H](CO)NC(=O)[C@H](CC(C)C)NC(=O)CN)CSSC[C@@H](C(=O)O)NC(=O)CNC(=O)[C@H](CC(C)C)NC(=O)CNC(=O)[C@H](CO)NC(=O)[C@H](CCSC)NC(=O)[C@H](CO)NC(=O)CNC1=O [BH] (H-GLSRGCFGLRLDRIGSMSGLGC-OH; disulfide 6-22) | 12% | 80% | –
CC[C@H](C)[C@@H]1NC(=O)[C@H](CCCNC(=N)N)NC(=O)[C@H](CC(=O)O)NC(=O)[C@H](CC(C)C)NC(=O)[C@H](CCCCN)NC(=O)[C@H](CC(C)C)NC(=O)CNC(=O)[C@H](Cc2ccccc2)NC(=O)[C@@H](NC(=O)CNC(=O)[C@H](CCCNC(=N)N)NC(=O)[C@H](CO)NC(=O)[C@H](CC(C)C)NC(=O)CN)CSSC[C@@H](C(=O)O)NC(=O)CNC(=O)[C@H](CC(C)C)NC(=O)CNC(=O)[C@H](CO)NC(=O)[C@H](CCSC)NC(=O)[C@H](CO)NC(=O)[C@H](CCCNC(=N)N)NC1=O [AE] (H-GLSRGCFGLKLDRIRSMSGLGC-OH; disulfide 6-22 (inferred); N-terminus and C-terminus assumed) | – | – | cGMP response relative to 1 uM CNP22 (%) at 0.01 µM (NIH3T3, […]): 0.3%; cGMP response relative to 1 uM CNP22 (%) at 1 µM (NIH3T3, […]): 0.3%
CC[C@H](C)[C@@H]1NC(=O)[C@H](CCCNC(=N)N)NC(=O)[C@H](CC(=O)O)NC(=O)[C@H](CC(C)C)NC(=O)[C@H](CCCCN)NC(=O)[C@H](CC(C)C)NC(=O)CNC(=O)[C@H](Cc2ccc(O)cc2)NC(=O)[C@@H](NC(=O)CNC(=O)[C@H](CCCNC(=N)N)NC(=O)[C@H](CO)NC(=O)[C@H](CC(C)C)NC(=O)CN)CSSC[C@@H](C(=O)O)NC(=O)CNC(=O)[C@H](CC(C)C)NC(=O)CNC(=O)[C@H](CO)NC(=O)[C@H](CCSC)NC(=O)[C@H](CO)NC(=O)CNC1=O [Z] (H-GLSRGCYGLKLDRIGSMSGLGC-OH; disulfide 6-22 (inferred); N-terminus and C-terminus assumed) | 2% | 18% | –
CC[C@H](C)[C@@H]1NC(=O)[C@H](CCCNC(=N)N)NC(=O)[C@H](CC(=O)O)NC(=O)[C@H](CC(C)C)NC(=O)[C@H](CCC(N)=O)NC(=O)[C@H](CC(C)C)NC(=O)CNC(=O)[C@H](Cc2ccccc2)NC(=O)[C@@H](NC(=O)CNC(=O)[C@H](CCCNC(=N)N)NC(=O)[C@H](CO)NC(=O)[C@H](CC(C)C)NC(=O)CN)CSSC[C@@H](C(=O)O)NC(=O)CNC(=O)[C@H](CC(C)C)NC(=O)CNC(=O)[C@H](CO)NC(=O)[C@H](CCSC)NC(=O)[C@H](CO)NC(=O)CNC1=O [BG] (H-GLSRGCFGLQLDRIGSMSGLGC-OH; disulfide 6-22) | 9% | 45% | –
CC[C@H](C)[C@@H]1NC(=O)[C@H](CCCNC(=N)N)NC(=O)[C@H](CC(=O)O)NC(=O)[C@H](CC(C)C)NC(=O)[C@H](CCCCN)NC(=O)[C@H](CC(C)C)NC(=O)CNC(=O)[C@H](Cc2ccccc2)NC(=O)[C@@H](NC(=O)CNC(=O)[C@H](CCCNC(=N)N)NC(=O)[C@H](CO)NC(=O)[C@H](CC(C)C)NC(=O)CNC(=O)[C@H](CCC(N)=O)NC(=O)[C@H](CCC(N)=O)NC(=O)[C@H](CC(N)=O)NC(=O)[C@H](C)NC(=O)CNC(=O)[C@H](CO)NC(=O)[C@H](CCC(N)=O)NC(=O)[C@@H](NC(=O)CNC(=O)[C@H](CO)NC(=O)[C@H](CO)NC(=O)[C@H](Cc2c[nH]cn2)NC(=O)[C@@H](NC(=O)[C@H](CCC(N)=O)NC(=O)CN)[C@@H](C)O)[C@@H](C)O)CSSC[C@@H](C(=O)O)NC(=O)CNC(=O)[C@H](CC(C)C)NC(=O)CNC(=O)[C@H](CO)NC(=O)[C@H](CCSC)NC(=O)[C@H](CO)NC(=O)CNC1=O [CN] (H-GQTHSSGTQSGANQQGLSRGCFGLKLDRIGSMSGLGC-OH; disulfide 21-37) | 12% | 115% | –
CC[C@H](C)[C@@H]1NC(=O)[C@H](CCCNC(=N)N)NC(=O)[C@H](CC(=O)O)NC(=O)[C@H](CC(C)C)NC(=O)[C@H](CCCCN)NC(=O)[C@H](CC(C)C)NC(=O)CNC(=O)[C@H](Cc2ccccc2)NC(=O)[C@@H](NC(=O)CNC(=O)[C@H](CCCNC(=N)N)NC(=O)[C@H](CO)NC(=O)[C@H](CC(C)C)NC(=O)CNC(=O)[C@H](CCCNC(=N)N)NC(=O)[C@@H]2CCCN2C(=O)[C@H](CC(N)=O)NC(=O)[C@H](C)NC(=O)CN)CSSC[C@@H](C(=O)O)NC(=O)CNC(=O)[C@H](CC(C)C)NC(=O)CNC(=O)[C@H](CO)NC(=O)[C@H](CCSC)NC(=O)[C@H](CO)NC(=O)CNC1=O [CI] (H-GANPRGLSRGCFGLKLDRIGSMSGLGC-OH; disulfide 11-27 (inferred); N-terminus and C-terminus assumed) | 50 ± 1% | 105 ± 12% | –
PEO24-CNP22, K4R: CNP22, K4R conjugated at the N-terminus to PEO24 (PEO24-GLSRGCFGLKLDRIGSMSGLGC; disulfide 6-22 (inferred); UniProt P23582 105-126, looked up, variant K4R) | – | – | cGMP Response rel. to 1 uM CNP22, 10 nM [1]: 15; cGMP Response rel. to 1 uM CNP22, 1 uM [2]: 56
